Test results from patent publication US8048870B2, “Apoptosis-inducing antineoplastic silver (I) coordination complexes” (priority 2005, dated 2011).

What was measured:
[1] = patients, i.v. injections; cited from earlier work
[2] = tested on: T-47D human breast carcinoma; assay: Cytotoxicity (% inhibition), trypan blue dye exclusion viable cell count, T-47D; format: cell-based
Experimental: The chemotherapeutic activities of the silver (I) coordination complex were determined on T-47D human breast carcinoma and Jurkat T-cell acute lymphoblastic leukemia, and compared with cisplatin (Pt(NH3)2Cl2) at 385 μg/mL, corresponding to 250 μg/mL platinum, which is the same concentration used for Ag for the experiments described in Examples 1 and 2, below. The two tumor cell lines were chosen very carefully so as to include solid (T-47D) and disseminated (Jurkat) neoplasia. Cells are plated in a 96-well flat bottom tissue culture plates at 50,000 cells/well. The experiments were conducted by serial dilution.
All cell lines were grown and tested in complete RPMI-1640 medium supplemented with 10% FBS, 40 μg/mL GEN, HEPES buffer of pH=7.2, 2 mM L-glutamine and sodium pyruvate. Plates were incubated in 5% CO2 at 37° C. in a humidified incubator for 24 hrs. Human tumor cells were maintained in the log phase by routine passaging every 2-3 days.
To assess % inhibition of tumor cells, the number of viable cells were counted by trypan blue dye exclusion method on a hemocytometer by microscopy, and adjusted for concentration of cells/mL. Briefly, each well was plated and washed with PBS twice and then harvested with 0.5 mL of Trypsin/EDTA. Cells were diluted with 1 ml of culture media and stained with trypan blue dye.
To examine if there was any interaction between culture medium and test reagents, the test culture was also inoculated with the present reagents without the presence of any of the drugs. […] All experiments were done in triplicates, and the results are averaged and reported.
Regression models were applied to the data to assess the correlation between % inhibition and concentration. Multiple curve estimation procedure was employed, and the relative fit for each model was determined on the basis of the values of the correlation coefficient, r^2; the fit that gives r^2 values closer to 1.0 was selected. The regression equations were then integrated over the concentration intervals for each phase, and their sum was taken as the AUCt>24.

T-47D cells = assay: DeadEnd Colorimetric TUNEL assay for in-situ apoptosis, T-47D; format: cell-based, human; details: 18 hours of incubation
Experimental: (§1) Detection of in-situ apoptosis was performed by the DeadEnd Colorimetric TUNEL (terminal deoxynucleotidyltransferase nick end labeling) assay for the detection of apoptosis in cultured cells as described in Promega kit (Promega Corporation-2800 Woods Hollow Road, Madison, Wis. 53711-5399, USA). Briefly, control and apoptosis-induced cells were centrifuged, washed with PBS, and were fixed on glass slides coated with poly-L-lysine (Sigma-Aldrich). The cells were fixed by immersing the slides in 10% buffered formalin, 4% paraformaldehyde solution for 25 minutes at room temperature. The fixed cells were then washed twice with fresh PBS for 5 minutes at room temperature. The cells were permeabilized by immersing the slides in 0.2% Triton® X-100 solution in PBS for 5 minutes at room temperature. The slides were then rinsed twice with PBS for 5 minutes each at room temperature. The excess liquid was then removed by tapping the slides, and the cells were covered with 100 μL of Equilibration Buffer, and the slides were equilibrated for 8 minutes at room temperature. Then, 100 μL of rTdT reaction mix were added and blotted around the equilibrated areas. The slides were then incubated at 37° C. for an hour inside a humidifier. Then, the reactions were terminated, the slides were washed and 0.3% hydrogen peroxide, and other reagents and washing steps were conducted according to the manufacturer's instructions. The slides were then observed under a light microscope for apoptotic staining. For comparative purposes, apoptotic studies were also performed on cisplatin. […]
(§2) To examine the mode of inherent chemotherapeutic activities of silver (I) complexes, apoptosis was detected by the TUNEL assay for each cell line studies for Phases I, II and III identified above. […] The 18 and 6-hour incubation periods were chosen because it was determined in previous experiments of this work that induction of apoptosis of silver (I) complex was within these times for these two cell lines.

Jurkat cells = assay: DeadEnd Colorimetric TUNEL assay for in-situ apoptosis, Jurkat; format: cell-based, human; details: 6 hours of incubation
Experimental: as §1, §2

For silver arsphenamine, the “LOAEL (lowest-observed-adverse-effect level) for argyria” value [1] is given as 0.014 mg/kg/day.
For `N.N.[Cl][Pt][Cl]` [CIS-Pt, cis-diaminedichloroplatinum (II)], the “calculated AUCt>24” value ([2]; Phase I) was 0.0 cfu·μg/mL, the “calculated AUCt>24” value ([2]; Phase II) was 2.05 cfu·μg/mL and the “calculated AUCt>24” value ([2]; Phase III) was 107 cfu·μg/mL. For the same molecule, the average % inhibition ([2]; range of 0.0019-0.0152 μg/mL metal) was 0%, the “apoptotic staining (TUNEL)” value (T-47D cells; 0.0076 μg/mL (Phase I)) was “absent” and the “apoptotic staining (TUNEL)” value (T-47D cells; 3.906 μg/mL (Phase II)) was “evident”. The “apoptotic staining (TUNEL)” value (T-47D cells; 15.625 μg/mL (Phase III)) was “evident”, the “apoptotic staining (TUNEL)” value (Jurkat cells; 0.0076 μg/mL (Phase I)) was “evident” and the “apoptotic staining (TUNEL)” value (Jurkat cells; 3.906 μg/mL (Phase II)) was “evident”. The “apoptotic staining (TUNEL)” value (Jurkat cells; 15.625 μg/mL (Phase III)) was “evident”.
